Source: patent publication US11845828B2, “Polymerizable composition for optical material, optical material, and producing method thereof” (Mitsui Chemicals, Inc., priority 2016, dated 2023)

Experiment: pKa value (acid dissociation index) of compound (A)

SMILES	pKa
Cc1cc(C)nc(C)c1 [Example A6, 2,4,6-trimethylpyridine]	7.48
Cc1cccc(C)n1 [Example A5, 2,6-lutidine]	6.6
Clc1cccnc1 [Example A3, 3-chloropyridine]	2.84
CCCCCCCCN(CCCCCCCC)CCCCCCCC [Example A7, trioctylamine]	8.35
